Measured values as given in patent publication US20120093875A1, “AMINOCYCLITOL COMPOUNDS, PROCESS FOR OBTAINING THEM AND USES” (priority 2009, published 2012).

Legend:
mouse iNKT cells = assay: Mouse iNKT cells expansion in vitro in spleen cell cultures (flow cytometry, TCR/NK1.1); assay type: cell-based
Method: The compounds were assayed at a final concentration of 1 μg/mL in complete medium with 1% of methanol (MeOH), while the αGalCer (αGC) was used at 0.2 μg/mL. The cell cultures were labeled with anti-NK1-PE and anti-TCR-FITC specific antibodies. The percentages of NKT cells (double positive cells) were calculated within the population of electronically selected T cells.
First, the ability to induce the specific proliferation of mouse iNKT was determined by culture experiments in vitro. For that, spleen cells derived from female B57Bl/6 mice between 10 and 20 weeks were isolated and the red blood cells were removed by hypotonic lysis. The spleen cells are distributed in 96 U-well plates, between 100,000 and 500,000 cells per well, and incubated in the presence of each of the compounds 1a, 1b, 2b, 3a, 3b and 4b at a final concentration of 1 μg/mL in RPMI-1640 growth medium, 10% fetal serum, […], 1% methanol. […] The culture was analyzed at day 5 or 6 by flow cytometry, using TCR and NK1.1 specific antibodies. In the presence of the control αGalCer:
(§1) Mouse C57BL/6 spleen cells are obtained by isolation of the spleen of female mice from 8 to 12 weeks of age, according to protocols approved by the Animal and Human Research Ethics Committee of the Autonomous University of Barcelona. The spleens are disaggregated with the plunger of a syringe in […] in a laminar flow hood, removing the red blood cells with lysis buffer (Sigma-Aldrich). 5×10^5 cells are placed in the wells of 96 U-well plates, and incubated with 100 ng/mL of α-GalCer, OCH, or 1 μg/mL of the compounds 1a, 1b, 2b, 3a, 3b, and 4b in RPMI-1640 medium supplemented with 10% fetal calf serum (FCS) (Labclinics), 50 μM 2-mercaptoethanol, 2 mM L-glutamine and 1% methanol (non-toxic concentration for the cells), and grown at 37° C. in a 5% CO2 humidified atmosphere. 25 U/mL of recombinant human interleukin 2 are added at day 2 of culture.
The spleen cells cultures grown in the indicated conditions are analyzed by flow cytometry in a FACS Calibur (Beckton Dickinson Bioscience) for quantifying the levels of proliferation of the iNKTs after incubation with the compounds 1a, 1b, 2b, 3a, 3b, and 4b. The stimulated spleen cultures are washed and preincubated with 50 μl of staining medium (PBS with 2% FCS) with anti-CD16 (clone 2.4G2) for 20 min in ice. Subsequently the cells are washed and resuspended in staining medium with mouse anti-TCR antibody conjugated to fluorescein isothiocyanate (FITC) (clone H57-597, BD-Pharmingen) and anti-NK1.1 conjugated to avidin (clone PK-136, BD-Pharmingen) for 30 min in ice. […] The samples are analyzed in the flow cytometer (FACSCalibur) and the data are processed using the program CellQuest (BD Bioscience).

[1] = test system: IL-4 production by iNKT cells; assay: IL-4 production in mouse spleen cell cultures, dose-response (ELISA); assay type: cell-based; details: dose-response (FIG. 3b)
Source text: (§2) Quantifying of the production of IFNγ (FIG. 3A) and IL-4 (FIG. 3B) after the stimulation in vitro of cultures of mouse spleen cells containing lipidic agonists of iNKT cells in a dose-response assay.
The CD1d glycolipidic ligands induce a deviation in the production of cytokines by iNKT cells to Th1 or Th2, depending on its ability to be presented by CD1d, and its structural characteristics recognized by the TCR. For quantifying more precisely the immunostimulating ability of the compound 4b and determining if it induces a deviation in the iNKT response, its ability to induce the production of IFNγ and IL-4 is titrated in the cell cultures using different concentrations, and comparing the same with the two prototypical ligands, αGalCer and OCH (dissolved in MeOH), that have been described as inducers of a Th1 and Th2 response, respectively. […]
(§3) For the determinations of IL-4 and IFNγ, culture supernatants are taken at day 4 or day 7, and stored at −70° C. or used immediately in ELISA assays (eBioscience) for quantifying the cytokines, following the manufacturer's instructions. […] The statistical significance of the results is analyzed using a t-Student test, considering significant differences with p<0.01. […]

[2] = test system: IFNγ production by iNKT cells; assay: IFNγ production in mouse spleen cell cultures, dose-response (ELISA); assay type: cell-based; details: dose-response (FIG. 3a)
Source text: as §2
(§4) The CD1d glycolipidic ligands induce a deviation in the production of cytokines by iNKT cells to Th1 or Th2, depending on its ability to be presented by CD1d, and its structural characteristics recognized by the TCR. For quantifying more precisely the immunostimulating ability of the compound 4b and determining if it induces a deviation in the iNKT response, its ability to induce the production of IFNγ and IL-4 is titrated in the cell cultures using different concentrations, and comparing the same with the two prototypical ligands, αGalCer and OCH (dissolved in MeOH), that have been described as inducers of a Th1 and Th2 response, respectively.
as §1, §3

iNKT cells = assay: Th1/Th2 deviation of the iNKT response (IFNγ versus IL-4 production); assay type: cell-based, mouse; details: for type of cytokine response (Th1/Th2 profile): IL-4 versus IFNγ induction in mouse spleen cell cultures; for IFNγ/IL-4 ratio: cytokines in mouse spleen cell culture supernatants (ELISA)
Source text: as §4, §1
For the determinations of IL-4 and IFNγ, culture supernatants are taken at day 4 or day 7, and stored at −70° C. or used immediately in ELISA assays (eBioscience) for quantifying the cytokines, following the manufacturer's instructions. Standard curves are generated with the recombinant cytokines included in the kit. The statistical significance of the results is analyzed using a t-Student test, considering significant differences with p<0.01. The compounds 1a, 1b, 2b, 3a, 3b, and 4b are resuspended in 100% methanol or 100% dimethyl sulfoxide at a concentration of 1 mg/mL, and a 1/10 use dilution in PBS is prepared, with a final concentration of 100 μg/mL. The compounds are heated at 56° C. for 10-30 min and sonicated, before being diluted in complete growth medium, with a final concentration of 1% vehicle in the cellular assay.

[3] = compound 1 μg/mL, 1% methanol, IL-2 at day 2, analysed day 5 or 6

Structure (SMILES): CCCCCCCCCCCCCCCCCCCCCCCCCC(=O)N[C@@H](CNC1[C@H](O)[C@H](O)C(O)[C@H](O)[C@H]1O)[C@H](O)[C@H](O)CCCCCCCCCCCCCC (some centres unmarked) [Compound 3a]
- expansion of iNKTs (mouse iNKT cells; [3]): approximately 2 times

Structure (SMILES): CCCCCCCCCCCCCC[C@@H](O)[C@@H](O)[C@H](CNC1[C@H](O)[C@H](O)C(O)[C@H](O)[C@H]1O)NC(=O)CCCCCCC (some centres unmarked) [Compound 3b]
- expansion of iNKTs (mouse iNKT cells; [3]): approximately 2 times

Structure (SMILES): CCCCCCCCCCCCCCCCCCCCCCCCCC(=O)N[C@@H](CN[C@H]1C[C@H](O)[C@@H](O)[C@H](O)[C@H]1O)[C@H](O)[C@H](O)CCCCCCCCCCCCCC [Compound 4b, (2S,3S,4R)-2-hexacosanamide-1-(1′S,2′S,3′R,4′R,5′S)-2,3,4,5,-tetrahydroxycyclohexylaminooctadecane-3,4-diol]
- concentration at which induction of IL-4 is maintained with high efficiency [1]: 100 ng/mL
- concentration at which induction of IL-4 is still significant [1]: 33 ng/mL
- concentration at which production of IFNγ is induced [2]: 333 ng/mL
- concentration at which the maximal IFNγ response plateau is reached [2]: 1 µg/mL
- magnitude of the maximal IFNγ response compared with α-GalCer [2]: lower magnitude
- NKT cells as percentage of the T cells after incubation (mouse iNKT cells; compound 1 μg/mL, increase from 1.2% baseline, day 5 or 6 (FIG. 1)): 6.2%
- type of cytokine response (Th1/Th2 profile) (iNKT cells): preferably Th2-type response
- IFNγ/IL-4 ratio (iNKT cells): 2
- response compared with the Th2 response prototype OCH (iNKT cells; mouse spleen cell cultures, dose-response): lower response

Structure (SMILES): CCCCCCCCCCCCCCCCCCCCCCCCCC(=O)N[C@@H](CO[C@H]1O[C@H](CO)[C@H](O)[C@H](O)[C@H]1O)[C@H](O)[C@H](O)CCCCCCCCCCCCCC [αGalCer, α-galactosylceramide, reference compound]
- expansion of the population of NKT cells over the baseline conditions (mouse iNKT cells; αGalCer control (0.2 μg/mL per FIG. 1), 1% methanol, IL-2 at day 2, analysed day 5 or 6): more than 5 times
- type of cytokine response (Th1/Th2 profile) (iNKT cells): high Th1 profile
- IFNγ/IL-4 ratio (iNKT cells): 10
